The source of these data is article PMC12067741, “Inhibition of SOD1 trimerization is a novel drug target for ALS disease” (Translational Neurodegeneration, 2025).

A short description of data set [1]: Pharmacokinetics in mice (compound screening, IV/PO). The format is in vivo, mouse. As to the method: Fig. S1. Optimized inhibitor reduces SOD1 aggregation. a, Mutant SOD1s induced WT-SOD1 aggregation. Testing the selected chemicals to check the inhibitory effect on SOD1 aggregation .HEK293 cells were transfected with MT-SOD1 vectors (A4V, G 93 A) and treated with selected chemicals (5 mM). After incubation, transfected cells were harvested with TNNI buffer and fixed with 0.04% glutaraldehyde (Glu) for 30min. Samples were separated using SDS-PAGE. b-c, PRG-A-04 inhibited SOD1 inclusions in SK-N-SH cells. (b) Cells expressing MT-SOD1 vectors were treated with PRG-A-04 ([…]) for 24 hr. After incubation, cells were fixed with 4 % PFA and observed under the fluorescence microscope. (c) Cells with SOD1 inclusions (white arrows; strong intensity of SOD1) were counted by photomicrographs and the percentages were shown with standard deviation (SD). For cell counting, ten fluorescence images were randomly selected. Counting of cells were performed by three independent observers, who were blinded to transfection or chemical treatment group; two-tailed Student’s t-test. NS; Not significant, ****P < 0.001, d, PRG-A- […]
degradationin blood as well as gastro-intestinal tract.IV; intravenous injected group, PO; Per Os administrated group e, […]
show cytotoxicity. To know the toxic effect of PRG-A-04 , human normal fibroblast (f) and neuron cells (g) were incubated with PRG -A-04 for 48 hr dose dependently and measured the viability through MTT assay .“Con” means Dimethyl sulfoxide (DMSO) -treated control . The data are normalized to DMSO-treated cells. n=3 independent experiments; two-tailed Student’s t-test.NS; Not significant, *P < 0.05, **P < 0.01, ***P < 0.005.

For data set [2], the system named is SOD1^G93A−Tg mice. Set-up: method as in PMID 34912047. The conditions noted are these: cited from earlier work.
Data set [3] relates to WT-WT SOD1 interaction. Set-up: method as in PMID 34912047. As to conditions: cited from earlier work.
The subject of data set [4] is ALS. As to conditions: cited from earlier work.
For data set [5], the system named is MT-SOD1 protein uptake. Nature of the data set: SOD1 recombinant protein uptake into neuronal cells. In kind it is cell-based. The conditions noted are these: SH-SY5Y cells, Dynasore 50 mM (so in the source), 6 hr. As to the method: For monitoring the localization of SOD1 recombinant proteins, SOD1-Halo proteins were added in neuronal cultures for 2 h and then the cells were incubated with the cell-permeable HaloTag-fluorscent ligands (diAcFAM) for 30 min. After incubation, cells were washed with serum-free culture medium three times and incubated in serum-containing culture medium in a CO2 incubator for 30 min to wash out unbound ligand. Fluorescent images of live cells were obtained using a commercial Tomocube HT-2H holotomography system (Daejeon, Republic of Korea).
We hypothesized that PRG-A-04, which targets trimeric SOD1, would inhibit SOD1 protein uptake. MT-SOD1 proteins were incubated with PRG-A-04 in vitro, and then cells were treated with the mixture. The MT-SOD1 protein uptake was reduced by incubation with PRG-A-04, as was SOD1 oligomerization (Fig. 3f, g). […] However, whether neuron-specific receptors on synapses, physiological conditions (neuronal cellular stress such as ion deficiency, environmental conditions such as hypoxia) and other ALS-related genetic causes (TDP-43, FUS, etc.) are essential for SOD1 uptake requires further study.
Fig. S3 SOD1 protein uptake into the cells through endocytosis. a, The uptake of SOD1 proteins was achieved by endocytosis. SH-SY5Y cells were treated with SOD1 recombinant proteins and endocytosis inhibitor (Dynasore; […]) for 6hr. After incubations, cells were harvested with RIPA and separated by SDS-PAGE. S.E: short exposure, L.E: long exposure. b, The recombinant MT-SOD1 protein is located intracellular space in neuron cells. SOD1-Halo proteins (3 μg/ml) were treated in neuron cells for 2 hr and incubated with HaloTag-fluorscent ligands (cellpermeable ligands; diAcFAM) for 30 min. After incubation, cells were washed with fresh culture medium three times and.
Incubate cells in complete culture medium at CO2 incubator for 30 min to wash unbound ligand. The fluorescence images of live cells were obtained using a commercial holotomography (HT-2H). White arrows indicate the intensity of SOD1. BF; Bright field, Scale bar; […].

Data set [6] in a line: BBB-PAMPA (parallel artificial membrane permeability assay). As to conditions: for recovery at 4 h, 10 µM: PAMPA. The source says: Next, we checked the basic in vitro ADME test including pharmacokinetics, plasma protein binding, CYP (Cytochrome P450) inhibition, metabolic stability and blood–brain barrier (BBB) permeability. […] We also plan to test safety panel assay in the future to obtain safety data for the drug.
Fig. S8. […]
In general terms: The PAMPA barrier holds no transporters, so it reflects passive diffusion.

Data set [7] has as its target misfolding-specific SOD1 antibody (Mis-SOD1 Ab). Nature of the data set: dot blot assay, band intensity quantified with Image J. As to conditions: normalised to Con, read off a plot.
The target in data set [8] is pan-SOD1 antibody (Pan-SOD1 Ab). Described as above. As to conditions: normalised to Con, read off a plot.
[9] abbreviates: Con (no PRG-A-04), Mis-SOD1 signal over Pan-SOD1 signal.
Setting [10] is: PRG-A-04 treated, Mis-SOD1 signal over Pan-SOD1 signal.

WT-SOD1 (wild-type SOD1) expressed in transfected cells (from UniProt P00441) G85R, sequence (P00441 whole entry, looked up, stated change not applied): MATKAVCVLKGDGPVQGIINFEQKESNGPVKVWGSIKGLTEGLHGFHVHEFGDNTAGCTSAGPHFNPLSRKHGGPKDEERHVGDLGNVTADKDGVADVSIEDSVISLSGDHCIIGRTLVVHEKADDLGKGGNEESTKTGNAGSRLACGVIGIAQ
WT-SOD1 (wild-type SOD1) expressed in transfected cells (from UniProt P00441) G93A, sequence (P00441 whole entry, looked up, stated change not applied): as above

With `COc1cc(C=CC(=O)OC2Cc3cc4ccc(=O)oc4cc3OC2(C)C)ccc1O` (stereo not shown) [PRG-A-01], in data set [1] (in vivo), the “bioavailability” value is recorded as “poorly bioavailable”. In addition, in data set [1] (pharmacokinetics analysis, IV and PO groups (Fig. S1d)), the “degradation in blood as well as gastro-intestinal tract” value was “rapid”. In addition, the “extension of lifespan of SOD1G93A-Tg mice” value in data set [2] is “about 10 days”. In addition, the “effect on WT-WT SOD1 interaction” value in data set [3] is on record as “did not show inhibitory effects”.

Turning to Tofersen, the “effect on functional decline in clinical trials” value in data set [4] (SOD1-ALS patients) is on record as “failed to improve functional decline”.

As to `O=C(N/N=C/c1ccc(O)c(O)c1)c1cc2ccccc2cc1O` [Dynasore, reference compound], the “effect on SOD1 protein uptake” value in data set [5] is “inhibited”.

With `CC1=NN(c2ccccc2)C(=O)C1` [radicava], in data set [4], the “efficacy on ALS progression” value is reported as “efficacy in delaying ALS progression” and the “efficacy on survival rate” value is given as “no efficacy on survival rate”.

`CC(C)NCC(O)COc1ccc(CC(N)=O)cc1` (stereo not shown) [Atenolol]: the recovery at 4 h, 10 µM in data set [6] is below 109%.

Take “WT-SOD1 (wild-type SOD1) expressed in transfected cells (from UniProt P00441) G93A”: the response in data set [7] (setting [9]) is 1 A.U; in data set [7] (Con (no PRG-A-04)) it was 1 A.U; in data set [7] (setting [10]), 0.25 A.U; in data set [7] (PRG-A-04 treated) it was 0.2 A.U; in data set [8] (Con (no PRG-A-04)), 1 A.U; in data set [8] (PRG-A-04 treated), 0.77 A.U.

As for `Nc1nc2ccc(OC(F)(F)F)cc2s1` [riluzole], the “efficacy on ALS progression” value in data set [4] is “efficacy in delaying ALS progression”.

Take `CC(C)NCC(O)COc1cccc2ccccc12` (stereo not shown) [Propranolol]: the “Mean Pe” value in data set [6] (BBB-PAMPA, test concentration 10 µM, incubation 4 hour) is 7.66 ×10⁻⁶ cm/s. In addition, the Permeability entry in data set [6] (BBB-PAMPA, test concentration 10 µM, incubation 4 hour, class in words) is “High”. The molecule further had a recovery at 4 h, 10 µM in data set [6] of 82.4%.

Regarding “WT-SOD1 (wild-type SOD1) expressed in transfected cells (from UniProt P00441) G85R”, the response in data set [7] (setting [9]) was 1 A.U; in data set [7] (Con (no PRG-A-04)), 1 A.U; in data set [7] (setting [10]) it was 0.42 A.U; in data set [7] (PRG-A-04 treated), 0.53 A.U; in data set [8] (Con (no PRG-A-04)), 1 A.U; in data set [8] (PRG-A-04 treated), 1.3 A.U.
